Results on 11 compounds are retold here after patent publication US11858959B2, “Glycyrrhetinic acid derivatives for use in treating hyperkalemia” (ARDELYX, INC., priority 2019, dated 2024).

Where only a bound is given, the exact number is not on record here.

The first experiment deals with HSD2 (Homo sapiens (Human), UniProt P80365). In words: HSD2 activity: cortisol level (HTRF) in human descending colon organoid-derived monolayer cultures.
Sequence of HSD2 (P80365 whole entry): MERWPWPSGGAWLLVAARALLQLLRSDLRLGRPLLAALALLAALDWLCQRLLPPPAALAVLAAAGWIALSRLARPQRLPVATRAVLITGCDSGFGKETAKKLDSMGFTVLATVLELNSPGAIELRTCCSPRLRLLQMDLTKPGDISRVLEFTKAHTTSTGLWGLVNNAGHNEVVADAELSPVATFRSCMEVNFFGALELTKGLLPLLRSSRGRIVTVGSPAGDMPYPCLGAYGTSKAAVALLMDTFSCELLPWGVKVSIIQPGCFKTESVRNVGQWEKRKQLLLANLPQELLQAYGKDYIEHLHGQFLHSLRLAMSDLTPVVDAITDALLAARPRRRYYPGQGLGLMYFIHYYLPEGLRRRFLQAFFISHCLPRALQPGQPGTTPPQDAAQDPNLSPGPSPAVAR
Conditions: not given
With `C[C@]1(C(=O)O)CC[C@]2(C)CC[C@]3(C)C(=CC(=O)[C@@H]4[C@@]5(C)CC[C@H](OC(=O)NCCN6CCOCC6)[C@@](C)(C(=O)O)[C@@H]5CC[C@]43C)[C@@H]2C1` [(2S,4aS,6aS,6bR,8aR,9S,10S,12aS,12bR,14bR)-2,4a,6a,6b,9,12a-hexamethyl-10-({[2-(morpholin-4-yl)ethyl]carbamoyl}oxy)-13-oxo-1,2,3,4,4a,5,6,6a,6b,7,8,8a,9,10,11,12,12a,12b,13,14b-icosahydropicene-2,9-dicarboxylic acid], the IC50 was above 10 µM. Same read-out and setting: in the case of `CCC(=O)O[C@H]1CC[C@@]2(C)[C@@H](CC[C@]3(C)[C@@H]2C(=O)C=C2[C@@H]4C[C@@](C)(C(=O)O)CC[C@]4(C)CC[C@]23C)[C@]1(C)NC(=O)OCc1oc(=O)oc1CC` [Compound 318-1, (2S,4aS,6aS,6bR,8aR,9S,10S,12aS,12bR,14bR)-9-((((5-ethyl-2-oxo-1,3-dioxol-4-yl)methoxy)carbonyl)amino)-2,4a,6a,6b,9,12a-hexamethyl-13-oxo-10-(propionyloxy)-1,2,3,4,4a,5,6,6a,6b,7,8,8a,9,10,11,12,12a,12b,13,14b-icosahydropicene-2-carboxylic Acid] it was 0.0355 µM.

For the compound `CN(C)CC(=O)O[C@H]1CC[C@@]2(C)[C@@H](CC[C@]3(C)[C@@H]2C(=O)C=C2[C@@H]4C[C@@](C)(C(=O)O)CC[C@]4(C)CC[C@]23C)[C@]1(C)C(=O)O` [(2S,4aS,6aS,6bR,8aR,9S,10S,12aS,12bR,14bR)-10-{[2-(dimethylamino)acetyl]oxy}-2,4a,6a,6b,9,12a-hexamethyl-13-oxo-1,2,3,4,4a,5,6,6a,6b,7,8,8a,9,10,11,12,12a,12b,13,14b-icosahydropicene-2,9-dicarboxylic acid], the IC50 was above 10 µM. Same read-out and setting: to `COC(=O)N[C@H]1CC[C@@]2(C)[C@@H](CC[C@]3(C)[C@@H]2C(=O)C=C2[C@@H]4C[C@@](C)(C(=O)O)CC[C@]4(C)CC[C@]23C)[C@]1(C)C(=O)O` [(2S,4aS,6aS,6bR,8aR,9S,10S,12aS,12bR,14bR)-10-[(methoxycarbonyl)amino]-2,4a,6a,6b,9,12a-hexamethyl-13-oxo-1,2,3,4,4a,5,6,6a,6b,7,8,8a,9,10,11,12,12a,12b,13,14b-icosahydropicene-2,9-dicarboxylic acid] belongs above 10 µM; to `C[C@]1(C(=O)O)CC[C@]2(C)CC[C@]3(C)C(=CC(=O)[C@@H]4[C@@]5(C)CC[C@H](O)[C@@](C)(N)[C@@H]5CC[C@]43C)[C@@H]2C1` [(2S,4aS,6aS,6bR,8aR,9S,10S,12aS,12bR,14bR)-9-amino-10-hydroxy-2,4a,6a,6b,9,12a-hexamethyl-13-oxo-1,2,3,4,4a,5,6,6a,6b,7,8,8a,9,10,11,12,12a,12b,13,14b-icosahydropicene-2-carboxylic acid], above 10 µM; to `CCC(=O)O[C@H]1CC[C@]2(C)[C@H]3C(=O)C=C4[C@@H]5C[C@@](C)(C(=O)O)CC[C@]5(C)CC[C@@]4(C)[C@]3(C)CC[C@H]2[C@]1(C)N` [(2S,4aS,6aS,6bR,8aR,9S,10S,12aS,12bR,14bR)-9-amino-2,4a,6a,6b,9,12a-hexamethyl-13-oxo-10-(propanoyloxy)-1,2,3,4,4a,5,6,6a,6b,7,8,8a,9,10,11,12,12a,12b,13,14b-icosahydropicene-2-carboxylic acid], 0.398 µM. Same read-out and setting: to `C[C@]1(C(=O)O)CC[C@]2(C)CC[C@]3(C)C(=CC(=O)[C@@H]4[C@@]5(C)CC[C@H](O)[C@@](C)(COCC(=O)O)C5CC[C@]43C)[C@@H]2C1` (stereo partly drawn) [(2S,4aS,6aS,6bR,9R,10S,12aS,12bR,14bR)-9-[(carboxymethoxy)methyl]-10-hydroxy-2,4a,6a,6b,9,12a-hexamethyl-13-oxo-1,2,3,4,4a,5,6,6a,6b,7,8,8a,9,10,11,12,12a,12b,13,14b-icosahydropicene-2-carboxylic acid] belongs above 10 µM.

`COCC(=O)O[C@H]1CC[C@@]2(C)[C@@H](CC[C@]3(C)[C@@H]2C(=O)C=C2[C@@H]4C[C@@](C)(C(=O)O)CC[C@]4(C)CC[C@]23C)[C@]1(C)C(=O)O` [(2S,4aS,6aS,6bR,8aR,9S,10S,12aS,12bR,14bR)-10-[(2-methoxyacetyl)oxy]-2,4a,6a,6b,9,12a-hexamethyl-13-oxo-1,2,3,4,4a,5,6,6a,6b,7,8,8a,9,10,11,12,12a,12b,13,14b-icosahydropicene-2,9-dicarboxylic acid] came in with an IC50 above 10 µM.

The compound `COCO[C@H]1CC[C@@]2(C)[C@@H](CC[C@]3(C)[C@@H]2C(=O)C=C2[C@@H]4C[C@@](C)(C(=O)O)CC[C@]4(C)CC[C@]23C)[C@]1(C)C(=O)OCc1oc(=O)oc1C(C)C` [Compound 258-2, (2S,4aS,6aS,6bR,8aR,9S,10S,12aS,12bR,14bR)-9-(((5-Isopropyl-2-oxo-1,3-dioxol-4-yl)methoxy)carbonyl)-10-(methoxymethoxy)-2,4a,6a,6b,9,12a-hexamethyl-13-oxo-1,2,3,4,4a,5,6,6a,6b,7,8,8a,9,10,11,12,12a,12b,13,14b-icosahydropicene-2-carboxylic Acid] had an IC50 of 0.126 µM. Still for that read-out and setting: in the case of `C[C@]1(C(=O)O)CC[C@]2(C)CC[C@]3(C)C(=CC(=O)[C@@H]4[C@@]5(C)CC[C@H](OC(=O)CS(C)(=O)=O)[C@@](C)(C(=O)O)[C@@H]5CC[C@]43C)[C@@H]2C1` [(2S,4aS,6aS,6bR,8aR,9S,10S,12aS,12bR,14bR)-10-[(2-methanesulfonylacetyl)oxy]-2,4a,6a,6b,9,12a-hexamethyl-13-oxo-1,2,3,4,4a,5,6,6a,6b,7,8,8a,9,10,11,12,12a,12b,13,14b-icosahydropicene-2,9-dicarboxylic acid] it was above 10 µM.

The same experiment, now with this note: HSD2 inhibition in human descending colon cultures; 30 min pre-incubation, then 40 nM cortisol for four hours; cortisol HTRF.
For “2-(3-((1-PEG5K-1H-1,2,3-triazol-4-yl)methoxy)-4-nitrobenzyl) 9-((5-methyl-2-oxo-1,3-dioxol-4-yl)methyl)(2S,4aS,6aS,6bR,8aR,9S,10S,12aS,12bR,14bR)-10-((2,5,8,11-tetraoxatetradecan-14-oyl)oxy)-2,4a,6a,6b,9,12a-hexamethyl-13-oxo-1,2,3,4,4a,5,6,6a,6b,7,8,8a,9,10,11,12,12a,12b,13,14b-icosahydropicene-2,9-dicarboxylate [Compound 605-2]”, the pIC50 is given as 6.9.
